Source: US10723711B2, “1,1,1-trifluoro-3-hydroxypropan-2-yl carbamate derivatives and 1,1,1-trifluoro-4-hydroxybutan-2-yl carbamate derivatives as MAGL inhibitors” (PFIZER INC., priority 2015, dated 2020)
Where two headings read alike, the source gives them in different places.

What was measured:
[1] = biological target: T1, human recombinant Monoacylglycerol Lipase (Homo sapiens, UniProt Q99685); experiment: MAGL inhibition enzymatic assay, fluorogenic substrate 7-HCA, IC50 at T=0 min or after 30 minute incubation (T=30 min); format: biochemical; details: geometric mean of 2-4 determinations unless otherwise indicated
T1 sequence (Q99685 1-303): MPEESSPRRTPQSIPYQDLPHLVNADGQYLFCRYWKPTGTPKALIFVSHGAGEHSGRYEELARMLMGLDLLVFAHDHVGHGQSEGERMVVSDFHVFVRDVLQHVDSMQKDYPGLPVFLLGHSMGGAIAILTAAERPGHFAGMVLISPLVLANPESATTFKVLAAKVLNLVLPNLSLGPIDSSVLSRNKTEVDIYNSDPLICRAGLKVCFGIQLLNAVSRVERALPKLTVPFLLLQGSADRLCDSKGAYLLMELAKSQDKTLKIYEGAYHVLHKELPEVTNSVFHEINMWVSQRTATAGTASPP
Method: An equal volume of 7-HCA in assay buffer with 10% DMSO was added either immediately (T=0 min) or after a 30 minute incubation (T=30 min) to initiate the reaction. […] After these dilutions, the final concentration of the test compound ranged from 3 μM to 0.03 nM. […] IC50 values were generated based on a four parameter fit model using ABASE software from IDBS.

[2] = Prodrug in vivo pharmacokinetics in rats after intravenous administration (LC-MS-MS of prodrug and parent); details: for Vd: Vdss
Method: (§1) Pharmacokinetic parameters derived from the plasma analytical data were determined using Watson LIMS 7.2.003 (Thermo Fisher Scientific, Waltham, Mass.).

[3] = Prodrug in vivo pharmacokinetics in dogs after intravenous administration (LC-MS-MS of prodrug and parent); details: for % AUC Extrap / AUC Extrap / Co / Rate Constant / T½ / AUC / CL / Vdss: Beagle dogs; for clearance / Vd: beagle, dog, in vivo, iv, 0.7 mg/kg; for clearance: CL; for Vd: Vdss
Method: as §1

[4] = T = 0 min (substrate added immediately), read-out: MAGL (T = 0 min) IC50
[5] = T = 30 min (30 minute incubation), read-out: MAGL (T = 30 min) IC50
[6] = Example 31 in plasma, Wistar Hann rats, IV Example 31 at 1.48 mg/kg, Mean
[7] = Example 31 in plasma, Wistar Hann rats, IV Example 31 at 1.48 mg/kg, Rat 01
[8] = Example 31 in plasma, Wistar Hann rats, IV Example 31 at 1.48 mg/kg, Rat 02
[9] = Example 31 in plasma, IV Example 31 at 0.7 mg/kg, Dog 01
[10] = Example 31 in plasma, IV Example 31 at 0.7 mg/kg, Dog 02
[11] = Example 31 in plasma, IV Example 31 at 0.7 mg/kg, Mean
[12] = Example 32 in plasma, rats, IV Example 32 (2 mg/kg active), Mean
[13] = Example 32 in plasma, rats, IV Example 32 (2 mg/kg active), Rat 03
[14] = Example 32 in plasma, rats, IV Example 32 (2 mg/kg active), Rat 04
[15] = Example 32 in plasma, IV Example 32 at 1 mg/kg, Dog 03
[16] = Example 32 in plasma, IV Example 32 at 1 mg/kg, Dog 04
[17] = Example 32 in plasma, IV Example 32 at 1 mg/kg, Mean

SMILES: O=C(O[C@H](COP(=O)([O-])[O-])C(F)(F)F)N1CCC2(CC1)C[C@@H](NS(=O)(=O)c1ccccc1)CO2.[Na+].[Na+] [Example 31, (2R)-3,3,3-Trifluoro-2-[({(3R)-3-[(phenylsulfonyl)amino]-1-oxa-8-azaspiro[4.5]dec-8-yl}carbonyl)oxy]propyl phosphate, disodium salt]
- IC50 [1, 4]: > 3 µM
- IC50 [1, 5]: > 3 µM
- % AUC Extrap [2, 6]: 1.41%
- AUC [2, 6]: 0.043 µg·h/mL
- AUC Extrap [2, 6]: 0.0436 µg·h/mL
- Co [2, 6]: 476 ng/mL
- Rate Constant [2, 6]: 12.1 h⁻¹
- T½ [2, 6]: 3.75 min
- % AUC Extrap [2, 7]: 1.19%
- AUC Extrap [2, 7]: 0.0436 µg·h/mL
- Co [2, 7]: 399 ng/mL
- Rate Constant [2, 7]: 8.61 h⁻¹
- T½ [2, 7]: 4.83 min
- AUC ([2]; Example 31 in plasma, Wistar Hann rats, IV Example 31 at 1.48 mg/kg, Rat 01, AUC interval 0-0.5 Hours): 0.0431 µg·h/mL
- % AUC Extrap [2, 8]: 1.62%
- AUC Extrap [2, 8]: 0.0436 µg·h/mL
- Co [2, 8]: 553 ng/mL
- Rate Constant [2, 8]: 15.6 h⁻¹
- T½ [2, 8]: 2.67 min
- AUC ([2]; Example 31 in plasma, Wistar Hann rats, IV Example 31 at 1.48 mg/kg, Rat 02, AUC interval 0-0.25 Hours): 0.0429 µg·h/mL
- clearance ([2]; Wistar Hann, rat, in vivo, iv, 1.48 mg/kg): 34 L/h/kg
- Vd ([2]; Wistar Hann, rat, in vivo, iv, 1.48 mg/kg, Example 31 in plasma, Wistar Hann rats, IV Example 31 at 1.48 mg/kg, Mean): 2.23 L/kg
- Vd ([2]; Wistar Hann, rat, in vivo, iv, 1.48 mg/kg, Example 31 in plasma, Wistar Hann rats, IV Example 31 at 1.48 mg/kg, Rat 01): 2.86 L/kg
- Vd ([2]; Wistar Hann, rat, in vivo, iv, 1.48 mg/kg, Example 31 in plasma, Wistar Hann rats, IV Example 31 at 1.48 mg/kg, Rat 02): 1.59 L/kg
- % AUC Extrap [3, 9]: 0.181%
- AUC Extrap [3, 9]: 0.108 µg·h/mL
- Co [3, 9]: 1630 ng/mL
- Rate Constant [3, 9]: 11.3 h⁻¹
- T½ [3, 9]: 3.68 min
- AUC ([3]; Example 31 in plasma, IV Example 31 at 0.7 mg/kg, Dog 01, AUC interval 0-0.5 Hours): 0.108 µg·h/mL
- % AUC Extrap [3, 10]: 0.103%
- AUC Extrap [3, 10]: 0.0539 µg·h/mL
- Co [3, 10]: 821 ng/mL
- Rate Constant [3, 10]: 11.2 h⁻¹
- T½ [3, 10]: 3.72 min
- AUC ([3]; Example 31 in plasma, IV Example 31 at 0.7 mg/kg, Dog 02, AUC interval 0-0.5 Hours): 0.0538 µg·h/mL
- % AUC Extrap [3, 11]: 0.142%
- AUC [3, 11]: 0.0809 µg·h/mL
- AUC Extrap [3, 11]: 0.081 µg·h/mL
- Co [3, 11]: 1230 ng/mL
- Rate Constant [3, 11]: 11.3 h⁻¹
- T½ [3, 11]: 3.7 min
- clearance [3, 9]: 6.48 L/h/kg
- clearance [3, 10]: 13 L/h/kg
- clearance [3, 11]: 9.72 L/h/kg
- Vd [3, 9]: 0.235 L/kg
- Vd [3, 10]: 0.465 L/kg
- Vd [3, 11]: 0.35 L/kg

SMILES: O=C(O[C@H](COP(=O)([O-])[O-])C(F)(F)F)N1CCC2(CC1)CN(S(=O)(=O)c1ccc(F)cc1)CCO2.[Na+].[Na+] [Example 32, (2R)-3,3,3-Trifluoro-2-[({4-[(4-fluorophenyl)sulfonyl]-1-oxa-4,9-diazaspiro[5.5]undec-9-yl}carbonyl)oxy]propyl phosphate, disodium salt]
- IC50 [1, 4]: > 3 µM
- IC50 [1, 5]: > 3 µM
- % AUC Extrap [2, 12]: 0.532%
- AUC [2, 12]: 0.159 µg·h/mL
- AUC Extrap [2, 12]: 0.16 µg·h/mL
- CL [2, 12]: 12.9 L/h/kg
- Co [2, 12]: 3760 ng/mL
- Rate Constant [2, 12]: 5.94 h⁻¹
- T½ [2, 12]: 7.32 min
- Vdss [2, 12]: 0.597 L/kg
- % AUC Extrap [2, 13]: 0.232%
- AUC Extrap [2, 13]: 0.185 µg·h/mL
- CL [2, 13]: 10.8 L/h/kg
- Co [2, 13]: 4480 ng/mL
- Rate Constant [2, 13]: 4.73 h⁻¹
- T½ [2, 13]: 8.82 min
- Vdss [2, 13]: 0.515 L/kg
- AUC ([2]; Example 32 in plasma, rats, IV Example 32 (2 mg/kg active), Rat 03, AUC interval 0-1 Hours): 0.185 µg·h/mL
- % AUC Extrap [2, 14]: 0.832%
- AUC Extrap [2, 14]: 0.134 µg·h/mL
- CL [2, 14]: 14.9 L/h/kg
- Co [2, 14]: 3040 ng/mL
- Rate Constant [2, 14]: 7.14 h⁻¹
- T½ [2, 14]: 5.83 min
- Vdss [2, 14]: 0.679 L/kg
- AUC ([2]; Example 32 in plasma, rats, IV Example 32 (2 mg/kg active), Rat 04, AUC interval 0-0.5 Hours): 0.133 µg·h/mL
- % AUC Extrap [3, 15]: 0.0443%
- AUC Extrap [3, 15]: 0.146 µg·h/mL
- CL [3, 15]: 6.84 L/h/kg
- Co [3, 15]: 1220 ng/mL
- Rate Constant [3, 15]: 5.08 h⁻¹
- T½ [3, 15]: 8.16 min
- Vdss [3, 15]: 0.751 L/kg
- AUC ([3]; Example 32 in plasma, IV Example 32 at 1 mg/kg, Dog 03, AUC interval 0-1 Hours): 0.146 µg·h/mL
- % AUC Extrap [3, 16]: 0.150%
- AUC Extrap [3, 16]: 0.229 µg·h/mL
- CL [3, 16]: 4.37 L/h/kg
- Co [3, 16]: 2370 ng/mL
- Rate Constant [3, 16]: 5.06 h⁻¹
- T½ [3, 16]: 8.22 min
- Vdss [3, 16]: 0.357 L/kg
- AUC ([3]; Example 32 in plasma, IV Example 32 at 1 mg/kg, Dog 04, AUC interval 0-1 Hours): 0.229 µg·h/mL
- % AUC Extrap [3, 17]: 0.0972%
- AUC [3, 17]: 0.188 µg·h/mL
- AUC Extrap [3, 17]: 0.188 µg·h/mL
- CL [3, 17]: 5.6 L/h/kg
- Co [3, 17]: 1800 ng/mL
- Rate Constant [3, 17]: 5.07 h⁻¹
- T½ [3, 17]: 8.22 min
- Vdss [3, 17]: 0.554 L/kg
